Test results reported in publication PMC8851638 (ACS Omega, 2022).
In brackets after ≈: the same amount, converted by molar mass. Several values for one entry are separate records, joined by “and”; a condition that tells them apart may be missing. Identical values can stand only once.

Key:
S. aureus biofilm = experiment: Staphylococcus biofilm mass reduction; format: cell-based; details: at their MIC
C. albicans200 [1] = experiment: Single-step resistance selection; format: cell-based, Candida albicans; details: 4 × MIC, 48 h
[2] = system: clinical pathogenic isolates; experiment: Single-step resistance selection, whole panel; format: cell-based; details: 4 × MIC
[3] = In vitro cytotoxicity on normal cell line; format: cell-based, green monkey; details: green monkey, Vero kidney cells
[4] = system: Vero: green monkey kidney; experiment: In vitro cytotoxicity on normal cell line; format: cell-based
A. baumannii [5] = experiment: Checkerboard combination assay with Ciprofloxacin; format: cell-based
S. epidermidis [6] = experiment: Time-kill kinetic assay; format: cell-based, Staphylococcus epidermidis; details: 2 × MIC
[7] = system: S. epidermidis (MDR00223); experiment: MIC and MBC by broth microdilution; format: cell-based, Staphylococcus epidermidis
C. albicans100 [8] = experiment: Single-step resistance selection; format: cell-based, Candida albicans; details: 4 × MIC, 48 h
E. coli (MDR00501) [9] = experiment: Agar well-diffusion antimicrobial sensitivity assay; format: cell-based; details: Escherichia coli, read-out: Inhibition Zone (IZ)
E. coli [10] = experiment: Checkerboard combination assay with Ciprofloxacin; format: cell-based
S. aureus (MDR00231) [11] = experiment: MIC and MBC by broth microdilution; format: cell-based, Staphylococcus aureus
S. aureus [12] = experiment: Time-kill kinetic assay; format: cell-based, Staphylococcus aureus
B. subtilis [13] = experiment: Checkerboard combination assay with Ciprofloxacin; format: cell-based
A. baumannii [14] = experiment: Time-kill kinetic assay; format: cell-based; details: 2 × MIC
C. albicans100 [15] = experiment: Checkerboard combination assay with Ketoconazole; format: cell-based, Candida albicans
K. pneumoniae (MDR00244) = experiment: MIC and MBC by broth microdilution; format: cell-based; details: ratio in parentheses
B. subtilis [16] = experiment: Time-kill kinetic assay; format: cell-based; details: 2 × MIC
S. aureus [17] = experiment: Checkerboard combination assay with Ciprofloxacin; format: cell-based, Staphylococcus aureus
B. subtilis (MDR00423) = experiment: MIC and MBC by broth microdilution; format: cell-based
A. baumannii [18] = experiment: Single-step resistance selection; format: cell-based; details: 4 × MIC, 48 h
RBCs = experiment: Hemolytic assay; format: cell-based; details: human RBCs; compounds 1.0 mg/mL; Triton X-100 0.1% v/v; 37 °C, 35 min
[19] = system: S. epidermidis (MDR00223); experiment: Agar well-diffusion antimicrobial sensitivity assay; format: cell-based, Staphylococcus epidermidis; details: Staphylococcus epidermidis, read-out: Inhibition Zone (IZ)
K. pneumoniae [20] = experiment: Checkerboard combination assay with Ciprofloxacin; format: cell-based
[21] = system: C. albicans100 (MDR00100); experiment: MIC and MFC by broth microdilution; format: cell-based, Candida albicans
B. subtilis [22] = experiment: Single-step resistance selection; format: cell-based; details: 4 × MIC, 48 h
S. epidermidis biofilm = experiment: Staphylococcus biofilm mass reduction; format: cell-based; details: at their MIC
[23] = In vitro cytotoxicity on normal cell line; format: cell-based, rat; details: rat, H9C2 heart/myocardium cells
[24] = system: H9C2: rat heart/myocardium; experiment: In vitro cytotoxicity on normal cell line; format: cell-based
S. aureus (MDR00231) [25] = experiment: Agar well-diffusion antimicrobial sensitivity assay; format: cell-based, Staphylococcus aureus; details: Staphylococcus aureus, read-out: Inhibition Zone (IZ)
[26] = system: C. albicans200 (MDR00200); experiment: as above; format: cell-based, Candida albicans; details: Candida albicans, read-out: Inhibition Zone (IZ)
K. pneumoniae [27] = experiment: Single-step resistance selection; format: cell-based; details: 4 × MIC, 48 h
K. pneumoniae [28] = experiment: Time-kill kinetic assay; format: cell-based; details: 2 × MIC
[29] = system: all the pathogenic isolates tested; experiment: Time-kill kinetic assay, whole panel; format: cell-based
[30] = system: C. albicans200 (MDR00200); experiment: MIC and MFC by broth microdilution; format: cell-based, Candida albicans
A. baumannii (MDR00521) = experiment: MIC and MBC by broth microdilution; format: cell-based; details: ratio in parentheses
C. albicans200 [31] = experiment: Checkerboard combination assay with Ketoconazole; format: cell-based, Candida albicans
E. coli DNA gyrase = E. coli DNA gyrase (Escherichia coli, UniProt P0AES4+P0AES6); experiment: DNA gyrase inhibition; format: biochemical
[32] = system: C. albicans100 (MDR00100); experiment: Agar well-diffusion antimicrobial sensitivity assay; format: cell-based, Candida albicans; details: Candida albicans, read-out: Inhibition Zone (IZ)
E. coli [33] = experiment: Time-kill kinetic assay; format: cell-based
S. epidermidis [34] = experiment: Checkerboard combination assay with Ciprofloxacin; format: cell-based, Staphylococcus epidermidis
S. aureus [35] = experiment: Single-step resistance selection; format: cell-based, Staphylococcus aureus; details: 4 × MIC, 48 h
[36] = system: BNL: mouse normal liver cells; experiment: In vitro cytotoxicity on normal cell line; format: cell-based
[37] = In vitro cytotoxicity on normal cell line; format: cell-based, mouse; details: mouse, BNL normal liver cells
E. coli (MDR00501) [38] = experiment: MIC and MBC by broth microdilution; format: cell-based
[39] = biological target: T1, dihydrofolate reductase (DHFR) (Homo sapiens, UniProt P00374); experiment: DHFR inhibition; format: biochemical
T1 sequence (P00374 1-187): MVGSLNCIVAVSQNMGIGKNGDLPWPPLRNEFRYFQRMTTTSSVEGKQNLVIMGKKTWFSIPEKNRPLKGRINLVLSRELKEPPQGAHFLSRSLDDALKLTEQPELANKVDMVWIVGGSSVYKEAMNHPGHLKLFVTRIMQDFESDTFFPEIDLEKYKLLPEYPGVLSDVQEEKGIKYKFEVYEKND

S. epidermidis [40] = experiment: Single-step resistance selection; format: cell-based, Staphylococcus epidermidis; details: 4 × MIC, 48 h
E. coli [41] = experiment: Single-step resistance selection; format: cell-based; details: 4 × MIC, 48 h

Chain of E. coli DNA gyrase (P0AES4 whole entry, the tested form may be a part, one chain of several): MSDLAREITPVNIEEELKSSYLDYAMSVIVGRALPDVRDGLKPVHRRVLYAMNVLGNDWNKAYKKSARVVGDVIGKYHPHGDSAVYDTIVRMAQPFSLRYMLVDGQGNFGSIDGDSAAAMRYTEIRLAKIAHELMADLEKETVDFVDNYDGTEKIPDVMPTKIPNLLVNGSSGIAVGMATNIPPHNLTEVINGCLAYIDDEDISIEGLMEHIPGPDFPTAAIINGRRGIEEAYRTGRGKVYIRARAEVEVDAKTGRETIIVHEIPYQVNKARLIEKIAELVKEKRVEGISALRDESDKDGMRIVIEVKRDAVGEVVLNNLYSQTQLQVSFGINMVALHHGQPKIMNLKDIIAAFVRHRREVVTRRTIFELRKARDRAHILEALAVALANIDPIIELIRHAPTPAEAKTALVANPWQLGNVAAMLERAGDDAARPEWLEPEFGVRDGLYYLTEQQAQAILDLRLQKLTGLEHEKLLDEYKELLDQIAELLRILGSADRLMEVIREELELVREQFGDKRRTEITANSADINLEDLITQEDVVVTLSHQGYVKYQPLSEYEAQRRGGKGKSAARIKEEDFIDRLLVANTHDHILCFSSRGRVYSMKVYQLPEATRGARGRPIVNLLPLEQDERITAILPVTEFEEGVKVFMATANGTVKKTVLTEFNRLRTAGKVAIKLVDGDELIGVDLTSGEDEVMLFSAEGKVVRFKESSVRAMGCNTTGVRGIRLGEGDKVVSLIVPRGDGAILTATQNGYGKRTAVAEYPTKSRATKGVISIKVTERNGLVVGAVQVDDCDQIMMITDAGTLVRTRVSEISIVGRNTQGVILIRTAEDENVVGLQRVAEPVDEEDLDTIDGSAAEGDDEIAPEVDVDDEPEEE

With `CCOC(=O)c1c(N)csc1-c1cn(-c2ccccc2)nc1-c1ccc(C)cc1` [Compound 7b, Ethyl 4-Amino-2-(1-phenyl-3-(p-tolyl)-1H-pyrazol-4-yl)thiophene-3-carboxylate] the “reduction of biofilm formation” value (S. aureus biofilm) was 67%, the “Single-step resistance frequency (mutation frequency)” value (“Single-step resistance frequency” for short) (C. albicans200 [1]) was 3.10 × 10^–6 and the “mutation frequency, range over panel” value [2] was 1.34 × 10^–6 to 1.67 × 10^–7. The IC50 at 72 h [3] was 78.8 ± 1.1 µM, the “Selectivity index against DHFR” value ([4]; IC50 of Vero / IC50 of DHFR) was 151.61 and the “Selectivity index against DNA gyrase” value ([4]; IC50 of Vero / IC50 of DNA gyrase) was 6.42. For the same compound, the combination effect (A. baumannii [5]) was “S (S: synergism)”, the “fractional inhibitory concentration index (FICI)” value (A. baumannii [5]) was 0.25 and the “time after which cells were rapidly reduced” value (S. epidermidis [6]) was 12 h. The MBC/MIC ([7]; S. epidermidis, ratio in parentheses) was 0.5, the MIC ([7]; Staphylococcus epidermidis, read-out: MIC (mean ± SEM), S. epidermidis, broth microdilution) was 0.24 ± 0.2 µg/mL (≈ 0.595 µM) and the “Single-step resistance frequency” value (C. albicans100 [8]) was 2.51 × 10^–6. The zone of inhibition at 100000 µg/mL (E. coli (MDR00501) [9]) was 30 ± 0.5 mm, the combination effect (E. coli [10]) was “S (S: synergism)” and the “fractional inhibitory concentration index (FICI)” value (E. coli [10]) was 0.5. For the same compound, the MBC/MIC (S. aureus (MDR00231) [11]; S. aureus, ratio in parentheses) was 0.5, the MIC (S. aureus (MDR00231) [11]; Staphylococcus aureus, read-out: MIC (mean ± SEM), S. aureus, broth microdilution) was 0.22 ± 0.3 µg/mL (≈ 0.545 µM) and the “time of maximum reduction” value (S. aureus [12]; 1/2 × MIC) was 24 h. For the same compound, the “time after which cells were rapidly reduced” value (S. aureus [12]; 2 × MIC) was 8 h, the combination effect (B. subtilis [13]) was “S (S: synergism)” and the “fractional inhibitory concentration index (FICI)” value (B. subtilis [13]) was 0.5. For the same compound, the “time after which cells were rapidly reduced” value (A. baumannii [14]) was 8 h, the combination effect (C. albicans100 [15]) was “S (S: synergism)” and the “fractional inhibitory concentration index (FICI)” value (C. albicans100 [15]) was 0.5. For the same compound, the MBC/MIC (K. pneumoniae (MDR00244)) was 1, the “time after which cells were rapidly reduced” value (B. subtilis [16]) was 12 h and the combination effect (S. aureus [17]) was “S (S: synergism)”. The “fractional inhibitory concentration index (FICI)” value (S. aureus [17]) was 0.25, the MBC/MIC (B. subtilis (MDR00423); B. subtilis, ratio in parentheses) was 1 and the MIC (B. subtilis (MDR00423); Bacillus subtilis, read-out: MIC (mean ± SEM), B. subtilis, broth microdilution) was 0.23 ± 0.6 µg/mL (≈ 0.57 µM). The “Single-step resistance frequency” value (A. baumannii [18]) was 2.11 × 10^–6, the “%lysis of RBCs” value (RBCs) was 3.23% and 3.23 ± 0.58% and the zone of inhibition at 100000 µg/mL [19] was 31 ± 0.16 mm. For the same compound, the combination effect (K. pneumoniae [20]) was “S (S: synergism)”, the “fractional inhibitory concentration index (FICI)” value (K. pneumoniae [20]) was 0.5 and the MFC/MIC ([21]; C. albicans100, ratio in parentheses) was 1. The MIC ([21]; Candida albicans, read-out: MIC (mean ± SEM), C. albicans100, broth microdilution) was 0.25 ± 0.2 µg/mL (≈ 0.62 µM), the “Single-step resistance frequency” value (B. subtilis [22]) was 1.30 × 10^–7 and the “reduction of biofilm formation” value (S. epidermidis biofilm) was 58%. For the same compound, the IC50 at 72 h [23] was 102 ± 1.39 µM, the “Selectivity index against DHFR” value ([24]; IC50 of H9C2 / IC50 of DHFR) was 195.44 and the “Selectivity index against DNA gyrase” value ([24]; IC50 of H9C2 / IC50 of DNA gyrase) was 8.28. For the same compound, the zone of inhibition at 100000 µg/mL (S. aureus (MDR00231) [25]) was 33 ± 0.32 mm, the zone of inhibition at 100000 µg/mL [26] was 32 ± 0.32 mm and the “Single-step resistance frequency” value (K. pneumoniae [27]) was 1.67 × 10^–7. For the same compound, the “time after which cells were rapidly reduced” value (K. pneumoniae [28]) was 12 h, the “reduction in the viable cell count relative to the initial inoculum” value [29] was ≥ 3 log10 and the MFC/MIC ([30]; C. albicans200, ratio in parentheses) was 0.5. For the same compound, the MIC ([30]; Candida albicans, read-out: MIC (mean ± SEM), C. albicans200, broth microdilution) was 0.23 ± 0.3 µg/mL (≈ 0.57 µM), the MBC/MIC (A. baumannii (MDR00521)) was 1 and the combination effect (C. albicans200 [31]) was “S (S: synergism)”. For the same compound, the IC50 (E. coli DNA gyrase) was 12.3 ± 0.34 µM, the zone of inhibition at 100000 µg/mL [32] was 31 ± 0.11 mm and the “time of maximum reduction” value (E. coli [33]; 1/2 × MIC) was 24 h. For the same compound, the “time after which cells were rapidly reduced” value (E. coli [33]; 2 × MIC) was 4 h, the combination effect (S. epidermidis [34]) was “S (S: synergism)” and the “fractional inhibitory concentration index (FICI)” value (S. epidermidis [34]) was 0.25. The “Single-step resistance frequency” value (S. aureus [35]) was 1.34 × 10^–6, the “Selectivity index against DHFR” value ([36]; IC50 of BNL / IC50 of DHFR) was 198.65 and the “Selectivity index against DNA gyrase” value ([36]; IC50 of BNL / IC50 of DNA gyrase) was 8.41. For the same compound, the IC50 at 72 h [37] was 103 ± 1.51 µM, the MBC/MIC (E. coli (MDR00501) [38]; E. coli, ratio in parentheses) was 0.5 and the MIC (E. coli (MDR00501) [38]; Escherichia coli, read-out: MIC (mean ± SEM), E. coli, broth microdilution) was 0.23 ± 0.1 µg/mL (≈ 0.57 µM). For the same compound, the IC50 [39] was 520 ± 200 nM, the “Single-step resistance frequency” value (S. epidermidis [40]) was 1.62 × 10^–6 and the “Single-step resistance frequency” value (E. coli [41]) was 1.90 × 10^–6.
